How the values were obtained:
[1] = test system: IMQ-induced mouse psoriasis model; test: Pharmacodynamic test in the IMQ-induced mouse psoriasis model; format: in vivo, female Balb/c mice; parameters: key to Skin PASI score Erythema / Skin PASI score Scaling / Skin PASI score Thickness: PASI component score, 0-4 points; key to Skin PASI Total Score: sum of erythema, scaling, thickness scores (each 0-4); key to Skin pathological score: sum of histopathology criterion points; details: Dex 3 mpk PO qd
From the text: The purpose of this test was to evaluate the pharmacodynamics of Compound (I) in the IMQ (5% imiquimod cream cream)-induced mouse psoriasis model. One of the clinical adverse effects of imiquimod is to induce the onset of psoriasis.
• Test medicament: Compound (I) • Positive control medicament: dexamethasone (Dex) • Vehicle: 0.4% Tween 80/0.5% methylcellulose.
• female Balb/c mice aged 5-6 weeks, number: 70.
The animals were randomly divided into seven groups according to the body weights on the day before the start of the experiment.
The animals were shaved on their back one day before applying the medicament, forming a skin exposure area having a size of about 2 cm×3 cm. The mice were induced by IMQ, and applied with 62.5 mg of 5% imiquimod cream on the bare back and the right ear at regular intervals every day for 14 days. Mice in the normal control group were applied with vaseline on the bare back and the right ear at regular intervals every day.
The skin thickness was measured daily from the first day of the test until the end of the test.
The skin thickness measurement method was as follows: the back skin and the subcutaneous tissue of the mouse were pinched with the thumb and the index finger of the left hand in the same direction as the mouse body; the skinfold thickness was measured 1 cm away from the pinched part of the left hand (near the center of the molding part) with a digital thickness gauge (with millesimal reading) held in the right hand (model BK-3281, manufacturer: Shanghai Niuhui). The thickness was in mm, and the actual thickness was the half of the measured thickness (the skin thickness=the measured value/2).
The ear thickness was measured daily (at the center of the auricle).
Skin photographs were taken daily from the first day of the test until the end of the test.
The clinical symptoms were evaluated with the PASI evaluation standard from three indicators of the erythema (Erythema), the scale (Scaling) and the skin thickness (Thickness), and scored with 0-4 points. The total score was obtained by summing the three scores. The PASI evaluation standard was as follows: 0, asymptomatic; 1, mild; 2, moderate; 3, severe; 4, extremely severe.
Erythema: 0—no erythema visible; 1—light red; 2—red; 3—dark red; 4—extremely dark red.
Scaling: 0—no visible scale on the skin surface; 1—part of the skin lesion surface covered with scales; 2—most of the skin lesion surface covered with scales; 3—almost all of the skin lesion region covered with scales; 4—all of the skin lesion region covered with scales.
Dryness and pruritus are not included in the total score.
On the 14th day of the test, the spleen weight was collected.
After the test, all mice were euthanized by excessive inhalation of carbon dioxide. The skin was collected and divided into four parts, one of which was fixed in a tissue fixative solution for 24 hours for the pathological is detection. It was dehydrated, then embedded in paraffin and made into 4-micron sections. Skin sections were stained with hematoxylin eosin to observe the infiltration of the stratum corneum, the epidermal layer, the dermis layer and the inflammatory cell. When measuring the thickness of the epidermal layer, the stained skin sections were scanned with a Leca Aperio CS2 scanner at 200×magnification, and then the histopathological changes were observed and scored.
The specific criteria of the pathological score were as follows: munro microabscess found in the epidermal layer 2.0 points; hyperkeratosis 0.5 points; parakeratosis 1.0 points; the thinning or disappearing of the granular layer 1.0 points; the thickening of acanthosis 1.0 points; the extension and fluctuation of cuticular process 0.5, 1.0 and 1.5 points respectively according to the mild, moderate and severe degrees. […]

[2] = test system: OXA-induced Balb/c mouse atopic dermatitis model; test: Pharmacodynamic test in the OXA-induced mouse atopic dermatitis model; format: in vivo, female Balb/c mice
From the text: The purpose of this test was to evaluate the pharmacodynamics of Compound (I) in the OXA-induced Balb/c mouse atopic dermatitis model. Repeated OXA stimulation of the dorsal skin of mice could produce a long-term inflammatory reaction. This model was closer to the clinical skin inflammation and was a common model for screening and evaluating compounds with anti-inflammatory activity.
Female Balb/c mice aged 8-9 weeks, number: 70
According to the body weight of animals in each group before administration, they were randomly divided into 7 groups with 10 animals in each group.
OXA induction was performed on the 7th day. The induction mode was to apply 5% OXA (dissolved in the acetone/olive oil (4/1) solvent) to the back of mice near the neck in an amount of 10 μL (1.5 cm×1.5 cm). Mice in the normal control group were applied with 10 μL of the acetone/olive oil (4/1) solvent in the same way. From the 1st da to 22nd day, the immunostimulation was performed, and 100 μL of 0.1% OXA (dissolved in the acetone/olive oil (4/1) solvent) was evenly applied on the back of mice near the neck. The application was performed every two days. Mice in the normal control group were applied with 100 μL of the acetone/olive oil (4/1) solvent in the same way. On the day of the immunostimulation, measuring the skin thickness, clinically scoring and photographing were required, and the OXA application was carried out after the above work was completed.
Compound (I) was administered by gavage twice a day (PO, bid) from the 1st to 22nd day. The administration was performed in the morning and completed before measuring the skin thickness, clinically scoring, photographing, and the OXA immunostimulation. The interval between two administrations was 8 hours.
Body weight data were recorded twice a week.
Skin thickness (1.5 cm×1.5 cm, the modeling area) was measured with a Mitutoyo digital indicator (Mitutoyo digimatic indicator, Type ID-C, USA) from the 1st to 22nd day. The measurement was performed every two days. If the skin thickness measurement and the OXA immunostimulation were performed on the same day, the skin thickness measurement would be preferred.
The skin in the modeling area was clinically scored according to the skin scoring criteria in Table 12 from the 1st to 22nd day and evaluated every two days. If the skin clinical scoring and the OXA immunostimulation were performed on the same day, the skin clinical scoring would be preferred.
At the end of the study, the tissue in the modeling area was stained with hematoxylin eosin for the skin pathological scoring and the epidermal thickness measurement.
After the mice were sacrificed, the dorsal skin was removed and fixed in 10% neutral formalin for 24 hours. It was dehydrated, then embedded in paraffin and made into 4-micron sections. The skin sections were stained with hematoxylin eosin, and the inflammatory cell infiltration and tissue changes in the stratum corneum, the epidermis layer and the dermis layer were observed under the microscope, and the pathological scores were made. The scoring criteria were: inflammatory cell aggregation and edema, which were divided into slight 1 point, moderate 2 points, and severe 3 points; telangiectasia, which was divided into slight 1 point, moderate 2 points, and severe 3 points.
The specific scoring criteria of inflammatory cell aggregation were as follows: (1) slight-1 point: inflammatory cells occupied a small amount of <10% of the dermal area of the skin; (2) moderate-2 points: inflammatory cells occupied 10%-50% of the dermal area of the skin; (3) severe-3 points: the inflammatory cells occupied greater than 50% of the dermal area of the skin. […]

[3] = Dexamethasone 3 mpk PO qd, 1st Day

What does the source list for C[C@@H]1C[C@H]2[C@@H]3CCC4=CC(=O)C=C[C@]4(C)[C@@]3(F)[C@@H](O)C[C@]2(C)[C@@]1(O)C(=O)CO [Dexamethasone, reference compound]?
Ear thickness Left ([1]; 1st Day): 0.14 ± 0.00 mm; Ear thickness Right ([1]; 1st Day): 0.14 ± 0.00 mm; Ear thickness Right-Left ([1]; 1st Day): 0.00 ± 0.00 mm; Skin PASI Total Score ([1]; 1st Day): 0.00 ± 0.00; Skin PASI score Erythema ([1]; 1st Day): 0.00 ± 0.00; Skin PASI score Scaling ([1]; 1st Day): 0.00 ± 0.00; Skin PASI score Thickness ([1]; 1st Day): 0.00 ± 0.00; Skin thickness ([1]; 1st Day): 0.32 ± 0.00 mm; Ear thickness Left ([1]; 14th Day): 0.15 ± 0.00 mm; Ear thickness Right ([1]; 14th Day): 0.33 ± 0.01 mm; Ear thickness Right-Left ([1]; 14th Day): 0.18 ± 0.00 mm; Skin PASI Total Score ([1]; 14th Day): 4.10 ± 0.18; Skin PASI score Erythema ([1]; 14th Day): 2.10 ± 0.10; Skin PASI score Scaling ([1]; 14th Day): 1.10 ± 0.10; Skin PASI score Thickness ([1]; 14th Day): 0.90 ± 0.10; Skin thickness ([1]; 14th Day): 0.32 ± 0.01 mm; Epidermal thickness ([1]; after 14 days of treatment): 84.98 ± 7.40 μm; IL-6 content in skin (ELISA) ([1]; after 14 days of treatment): 607.20 ± 76.89 pg/g; Skin pathological score ([1]; after 14 days of treatment): 3.95 ± 0.50; Spleen weight ([1]; after 14 days of treatment): 93.79 ± 4.64 mg; Spleen weight/body weight (spleen index) ([1]; after 14 days of treatment): 6.17 ± 0.29 mg/g; TNF-alpha content in skin (ELISA) ([1]; after 14 days of treatment): 1172.53 ± 115.72 pg/g; Body weight [2, 3]: 18.08 ± 0.12 g; Skin clinical score [2, 3]: 0.4 ± 0.16; Skin thickness (modeling area) ([2]; Dexamethasone 3 mpk PO qd, 1st day): 0.532 ± 0.012 mm; Body weight ([2]; Dexamethasone 3 mpk PO qd, −7th Day): 18.08 ± 0.12 g; Influence on the body weight of mice ([2]; dexamethasone 3 mpk PO qd, end of the study): decreased significantly

Reference: patent US20240165123A1, “USE OF A COMPOUND CONTAINING A TRICYCLIC HETEROARYL GROUP” (CSPC Zhongqi Pharmaceutical Technology (Shijiazhuang) Co., …, priority 2021, published 2024)
